Active and inactive are the calls of the source. No rule for the calls is given here.
Test system: CCRIS mutagenicity, Ames/micronucleus/aberration tests
Assay: CCRIS mutagenicity studies

COC(C)(C)C
mutagenic call (Test System: AMES SALMONELLA TYPHIMURIUM, Strain/Indicator: TA98, Metabolic Activation: NONE): inactive; negative
mutagenic call (Test System: AMES SALMONELLA TYPHIMURIUM, Strain/Indicator: TA98, Metabolic Activation: NONE, Method: MICROSUSPENSION): inactive; negative
mutagenic call (Test System: AMES SALMONELLA TYPHIMURIUM, Strain/Indicator: TA98, Metabolic Activation: NONE, Method: STANDARD PLATE): inactive; negative
mutagenic call (Test System: AMES SALMONELLA TYPHIMURIUM, Strain/Indicator: TA98, Metabolic Activation: RAT LIVER S-9): inactive; negative
mutagenic call (Test System: AMES SALMONELLA TYPHIMURIUM, Strain/Indicator: TA98, Metabolic Activation: RAT LIVER S-9, AROCLOR 1254, Method: STANDARD PLATE): inactive; negative
mutagenic call (Test System: AMES SALMONELLA TYPHIMURIUM, Strain/Indicator: TA98, Metabolic Activation: RAT, LIVER, S-9, AROCLOR 1254, Method: MICROSUSPENSION): inactive; negative
mutagenic call (Test System: AMES SALMONELLA TYPHIMURIUM, Strain/Indicator: TA100, Metabolic Activation: NONE): inactive; negative
mutagenic call (Test System: AMES SALMONELLA TYPHIMURIUM, Strain/Indicator: TA100, Metabolic Activation: NONE, Method: MICROSUSPENSION): inactive; negative
mutagenic call (Test System: AMES SALMONELLA TYPHIMURIUM, Strain/Indicator: TA100, Metabolic Activation: NONE, Method: STANDARD PLATE): inactive; negative
mutagenic call (Test System: AMES SALMONELLA TYPHIMURIUM, Strain/Indicator: TA100, Metabolic Activation: RAT LIVER S-9): inactive; negative
mutagenic call (Test System: AMES SALMONELLA TYPHIMURIUM, Strain/Indicator: TA100, Metabolic Activation: RAT LIVER S-9, AROCLOR 1254, Method: STANDARD PLATE): inactive; negative
mutagenic call (Test System: AMES SALMONELLA TYPHIMURIUM, Strain/Indicator: TA100, Metabolic Activation: RAT, LIVER, S-9, AROCLOR 1254, Method: MICROSUSPENSION): inactive; negative
mutagenic call (Test System: AMES SALMONELLA TYPHIMURIUM, Strain/Indicator: TA102, Metabolic Activation: NONE, Method: STANDARD PLATE): inactive; negative
mutagenic call (Test System: AMES SALMONELLA TYPHIMURIUM, Strain/Indicator: TA102, Metabolic Activation: RAT, LIVER, S-9, PHENOBARBITAL-BETA-NAPHTHOFLAVONE, Method: STANDARD PLATE): inactive; negative
mutagenic call (Test System: AMES SALMONELLA TYPHIMURIUM, Strain/Indicator: TA104, Metabolic Activation: NONE, Method: MICROSUSPENSION): inactive; negative
mutagenic call (Test System: AMES SALMONELLA TYPHIMURIUM, Strain/Indicator: TA104, Metabolic Activation: RAT, LIVER, S-9, AROCLOR 1254, Method: MICROSUSPENSION): inactive; negative
mutagenic call (Test System: AMES SALMONELLA TYPHIMURIUM, Strain/Indicator: TA1535, Metabolic Activation: NONE, Method: MICROSUSPENSION): inactive; negative
mutagenic call (Test System: AMES SALMONELLA TYPHIMURIUM, Strain/Indicator: TA1535, Metabolic Activation: RAT, LIVER, S-9, AROCLOR 1254, Method: MICROSUSPENSION): inactive; negative
mutagenic call (Test System: Ames Salmonella typhimurium, Strain/Indicator: TA98, Metabolic Activation: None, Method: Plate incorporation): inactive; negative
mutagenic call (Test System: Ames Salmonella typhimurium, Strain/Indicator: TA98, Metabolic Activation: None, Method: Preincubation): inactive; negative
mutagenic call (Test System: Ames Salmonella typhimurium, Strain/Indicator: TA98, Metabolic Activation: Rat, Liver, S-9, Method: Plate incorporation): inactive; negative
mutagenic call (Test System: Ames Salmonella typhimurium, Strain/Indicator: TA98, Metabolic Activation: Rat, Liver, S-9, Method: Preincubation): inactive; negative
mutagenic call (Test System: Ames Salmonella typhimurium, Strain/Indicator: TA100, Metabolic Activation: None, Method: Plate incorporation): inactive; negative
mutagenic call (Test System: Ames Salmonella typhimurium, Strain/Indicator: TA100, Metabolic Activation: None, Method: Preincubation): inactive; negative
mutagenic call (Test System: Ames Salmonella typhimurium, Strain/Indicator: TA100, Metabolic Activation: Rat, Liver, S-9, Method: Plate incorporation): inactive; negative
mutagenic call (Test System: Ames Salmonella typhimurium, Strain/Indicator: TA100, Metabolic Activation: Rat, Liver, S-9, Method: Preincubation): inactive; negative
mutagenic call (Test System: Ames Salmonella typhimurium, Strain/Indicator: YG1041, Metabolic Activation: None, Method: Plate incorporation): inactive; negative
mutagenic call (Test System: Ames Salmonella typhimurium, Strain/Indicator: YG1041, Metabolic Activation: None, Method: Preincubation): inactive; negative
mutagenic call (Test System: Ames Salmonella typhimurium, Strain/Indicator: YG1042, Metabolic Activation: None, Method: Plate incorporation): inactive; negative
mutagenic call (Test System: Ames Salmonella typhimurium, Strain/Indicator: YG1042, Metabolic Activation: None, Method: Preincubation): inactive; negative
mutagenic call (Test System: MOUSE LYMPHOMA, Strain/Indicator: L5178Y (TK+/TK-), Metabolic Activation: RAT, LIVER, S-9, AROCLOR 1254, Method: SUSPENSION/PLATE): active; positive
mutagenic call (Test System: MOUSE LYMPHOMA, Strain/Indicator: L5178Y (TK+/TK-), Method: SUSPENSION/PLATE): inactive; negative
mutagenic call (Test System: UDS MOUSE HEPATOCYTES, Strain/Indicator: THY INCORP, Metabolic Activation: NONE, Method: IN-VIVO-IN VITRO): inactive; negative
mutagenic call (Test System: UDS RAT HEPATOCYTES, Strain/Indicator: THYMIDINE INCORPORATION, Metabolic Activation: NONE, Method: LIQUID SCINTILLATION COUNTING): active; positive
mutagenic call (Test System: UDS RAT HEPATOCYTES, Strain/Indicator: THYMIDINE INCORPORATION, Metabolic Activation: RAT LIVER S-9, AROCLOR 1254, Method: LIQUID SCINTILLATION COUNTING): active; positive

CC(C)(C)Cl
mutagenic call (Test System: Mouse lymphoma, Strain/Indicator: L5178Y (tk+/tk-), Metabolic Activation: None, Method: Suspension/plate): inactive; negative
mutagenic call (Test System: Mouse lymphoma, Strain/Indicator: L5178Y (tk+/tk-), Metabolic Activation: Rat, Liver, S-9, Aroclor 1254, Method: Suspension/plate): inactive; negative
